Structures are written as SMILES. Bounds are passed on as bounds.

In the test the test system is Corn leaf discs (variety Multitop). Put plainly: Dark induced senescence of corn leaf. The format is in vivo. The settings on record: Zea mays, foliar, 192 h; corn leaf discs in the dark, 23° C., 75% humidity, 8 days; 100 μM-0.0001 μM, 0.5% DMSO; image analysis; read-out: IC50 (concentration at which 50% senescence was achieved). The procedure: Corn plants of variety Multitop were grown in a greenhouse with relative 75% humidity and at 23-25° C. for 6 weeks. 1.4 cm diameter leaf discs were placed into 24-well plates containing test compounds in a concentration gradient (100 μM-0.0001 μM) at a final concentration of 0.5% DMSO. Each concentration was tested in 12 replicates. Plates were sealed with seal foil. The foil was pierced to provide gas exchange in each well. The plates were placed into the completely dark climatic chamber. Plates were incubated in the chamber with 75% humidity and at 23° C. for 8 days. On days 0, 5, 6, 7 and 8 photographs were taken of each plate, and image analysis conducted with a macro developed using the ImageJ software. The image analysis was used to determine the concentration at which 50% senescence was achieved (IC50), see Table 3. The lower the value, the higher senescence induction potency.
As for `CCOC(=O)/C(=C/OC1OC(=O)C(C)=C1C)N1C(=O)C2(CC2)c2ccccc21` (stereo not drawn) [Compound I-67-Z, ethyl (Z)-3-[(3,4-dimethyl-5-oxo-2H-furan-2-yl)oxy]-2-(2′-oxospiro[cyclopropane-1,3′-indoline]-1′-yl)prop-2-enoate], the IC50 was below 3 µM.

For the compound `CCOC(=O)/C(=C/OC1C=C(C)C(=O)O1)n1c(=O)oc2ccccc21` (stereo not drawn) [Compound I-68-Z, ethyl (Z)-3-[(4-methyl-5-oxo-2H-furan-2-yl)oxy]-2-(2-oxo-1,3-benzoxazol-3-yl)prop-2-enoate], the IC50 was below 3 µM.

As for `CCOC(=O)/C(=C/OC1OC(=O)C(C)=C1C)n1c(=O)oc2ccccc21` (stereo not drawn) [Compound I-69-Z, ethyl (Z)-3-[(3,4-dimethyl-5-oxo-2H-furan-2-yl)oxy]-2-(2-oxo-1,3-benzoxazol-3-yl)prop-2-enoate], the IC50 is below 3 µM.

`CCOC(=O)/C(=C/OC1C=C(C)C(=O)O1)N1CCc2ccccc21` (stereo not drawn) [Compound I-70-Z, ethyl (Z)-2-indolin-1-yl-3-[(4-methyl-5-oxo-2H-furan-2-yl)oxy]prop-2-enoate]: the IC50 is below 3 µM.

For `CCOC(=O)/C(=C/OC1C=C(C)C(=O)O1)N1CCc2cc(Br)ccc21` (stereo not drawn) [Compound I-72-Z, ethyl (Z)-2-(5-bromoindolin-1-yl)-3-[(4-methyl-5-oxo-2H-furan-2-yl)oxy]prop-2-enoate], the IC50 is below 3 µM.

As to `CCOC(=O)/C(=C/OC1OC(=O)C(C)=C1C)N1CCc2cc(Br)ccc21` (stereo not drawn) [Compound I-73-Z, ethyl (Z)-2-(5-bromoindolin-1-yl)-3-[(3,4-dimethyl-5-oxo-2H-furan-2-yl)oxy]prop-2-enoate], the IC50 was below 3 µM.

For the compound `CCOC(=O)/C(=C/OC1C=C(C)C(=O)O1)N1C(=O)CSc2ccccc21` (stereo not drawn) [Compound I-78-Z, ethyl (Z)-3-[(4-methyl-5-oxo-2H-furan-2-yl)oxy]-2-(3-oxo-1,4-benzothiazin-4-yl)prop-2-enoate], the IC50 was below 3 µM.

`CCOC(=O)/C(=C/OC1OC(=O)C(C)=C1C)N1C(=O)CSc2ccccc21` (stereo not drawn) [Compound I-79-Z, ethyl (Z)-3-[(3,4-dimethyl-5-oxo-2H-furan-2-yl)oxy]-2-(3-oxo-1,4-benzothiazin-4-yl)prop-2-enoate]: the IC50 was below 3 µM.

As for `CCOC(=O)/C(=C/OC1C=C(C)C(=O)O1)n1nc(C)c(C)c1C` (stereo not drawn) [Compound I-80-Z, ethyl (Z)-3-[(4-methyl-5-oxo-2H-furan-2-yl)oxy]-2-(3,4,5-trimethylpyrazol-1-yl)prop-2-enoate], the IC50 is below 3 µM.

Turning to `CCOC(=O)/C(=C/OC1OC(=O)C(C)=C1C)n1nc(C)c(C)c1C` (stereo not drawn) [Compound I-81-Z, ethyl (Z)-3-[(3,4-dimethyl-5-oxo-2H-furan-2-yl)oxy]-2-(3,4,5-trimethylpyrazol-1-yl)prop-2-enoate], the IC50 was below 3 µM.

As for `CNC(=O)/C(=C/OC1C=C(C)C(=O)O1)n1cc(C#N)c2ccccc21` (stereo not drawn) [Compound I-82-Z, (Z)-2-(3-cyanoindol-1-yl)-N-methyl-3-[(4-methyl-5-oxo-2H-furan-2-yl)oxy]prop-2-enamide], the IC50 was below 3 µM.

`CNC(=O)/C(=C/OC1OC(=O)C(C)=C1C)n1cc(C#N)c2ccccc21` (stereo not drawn) [Compound I-83-Z, (Z)-2-(3-cyanoindol-1-yl)-3-[(3,4-dimethyl-5-oxo-2H-furan-2-yl)oxy]-N-methyl-prop-2-enamide]: the IC50 was below 3 µM.

For the compound `CC1=CC(O/C=C(/C(=O)N(C)C)n2cc(C#N)c3ccccc32)OC1=O` (stereo not drawn) [Compound I-86-Z, (Z)-2-(3-cyanoindol-1-yl)-N,N-dimethyl-3-[(4-methyl-5-oxo-2H-furan-2-yl)oxy]prop-2-enamide], the IC50 is below 3 µM.

For `CCOC(=O)/C(=C/OC1OC(=O)C(C)=C1OC)n1cc(C#N)c2ccccc21` (stereo not drawn) [Compound I-88-Z, ethyl (Z)-2-(3-cyanoindol-1-yl)-3-[(3-methoxy-4-methyl-5-oxo-2H-furan-2-yl)oxy]prop-2-enoate], the IC50 is below 3 µM.

In the case of `CCOC(=O)/C(=C/OC1OC(=O)C(C)=C1C)n1ccc2nccnc21` (stereo not drawn) [Compound I-90-Z, ethyl (Z)-3-[(3,4-dimethyl-5-oxo-2H-furan-2-yl)oxy]-2-pyrrolo[2,3-b]pyrazin-5-yl-prop-2-enoate], the IC50 is below 3 µM.

The values above are taken from US20230339916A1, “PLANT GROWTH REGULATOR COMPOUNDS” (SYNGENTA CROP PROTECTION AG, priority 2020, published 2023).
